Results from patent publication US20250263396A1, “CRYSTALLINE FORMS OF 3-(5-(2-HYDROXY-2- METHYLPROPOXY)-6-METHYPYRAZIN-2-YL)-1H-INDOLE-7-CARBONITRILE” (NIDO BIOSCIENCES, INC., priority 2024, published 2025).
Like-named read-outs stand apart in the source and are kept apart here.

Legend:
[1] = Competitive water activity experiments; conditions: whole range of water activity (0≤a.w.≤1)
[2] = Competitive equilibration experiments
Experimental: Relative stability of the anhydrate Forms A, C, H and J was investigated with competitive equilibration experiments.
Relative stability of the anhydrates Forms C, K and L was investigated with competitive equilibration experiments.
Relative stability of the anhydrates Form C and Form P was systematically investigated with competitive equilibration experiments.
About 5 mg of Form C and about 5 mg of Form P were added to 0.25 mL of saturated solutions of selected solvents. Obtained suspensions were stirred at 25° C., 50° C. and 70° C. for 4 days, respectively. Solid parts (wet cakes) were isolated by centrifugation filtration and investigated by XRPD.
About 10 mg of Form C and about 10 mg of Form P were added to 0.5 mL saturated solutions of selected solvents. Obtained suspensions were stirred at 80/C and 90 C, respectively. Solid parts (wet cakes) were be isolated by centrifugation filtration and investigated by XRPD.
About 3 mg of the Form P and 3 mg of the mixture of Form P and Form J were added to 0.2 mL of saturated solutions of selected solvents. Obtained suspensions were stirred at 25° C., 50° C. and 70° C. for 4 days, respectively. Solid parts (wet cakes) were isolated by centrifugation filtration and investigated by XRPD.
About 3 mg of Form P and 3 mg of the physical mixture of Form P and Form R were added to 0.2 mL of saturated solutions of 2-MeTHF. Obtained suspensions were stirred at 25° C., 50° C. and 70° C., respectively. Solid parts (wet cakes) were isolated by centrifugation filtration and investigated by XRPD.
About 1.5 mg of Form P, 1.5 mg of Form X and 1.5 mg Form Y were added to 0.15 mL saturated solution of 2-MeTHF. Obtained suspensions were stirred at 25° C., 50° C. and 70° C., respectively. Solid parts (wet cake) were isolated by centrifugation filtration and investigated by XRPD.

[3] = Equilibration with solvents; type: physicochemical
Experimental: Obtained suspensions were filtered through a 0.45 μm nylon membrane filter by centrifugation at 14,000 rpm. Solid parts (wet cakes) were investigated by XRPD. For samples with different XRPD patterns, additional analysis including DSC, TGA, ^1H-NMR were performed.
(§1) Obtained suspensions were filtered through a 0.45 μm nylon membrane filter by centrifugation at 14,000 rpm.
as §1

[4] = Form change on heating, dehydration or desolvation (TGA, DSC, variable temperature XRPD); type: physicochemical
[5] = as above; type: physicochemical; conditions: variable temperature XRPD
Experimental: Relative stability of the anhydrates Form R and Form P was investigated by variable temperature XRPD and competitive equilibration experiments.
Relative stability of the anhydrates Form B, Form X, Form Y and Form C was investigated by variable temperature XRPD. Form B converted to Form X, Form Y and Form C after heating to 150° C., 176° C. and 180° C., respectively.

## Cc1nc(-c2c[nH]c3c(C#N)cccc23)cnc1OCC(C)(C)O [Form N, 3-(5-(2-hydroxy-2-methylpropoxy)-6-methylpyrazin-2-yl)-1H-indole-7-carbonitrile]
[1]
  Relative stability in water activity experiments: converts to Form C

## Cc1nc(-c2c[nH]c3c(C#N)cccc23)cnc1OCC(C)(C)O [Form X, 3-(5-(2-hydroxy-2-methylpropoxy)-6-methylpyrazin-2-yl)-1H-indole-7-carbonitrile]
[2]; at 25° C., 50° C. and 70° C.
  Form conversion (relative stability): converts to Form P

## Cc1nc(-c2c[nH]c3c(C#N)cccc23)cnc1OCC(C)(C)O [Form G, 3-(5-(2-hydroxy-2-methylpropoxy)-6-methylpyrazin-2-yl)-1H-indole-7-carbonitrile]
[3]; DMSO/water system at 25° C. for 6 days
  Form after equilibration: converts to anhydrate Form H

## Cc1nc(-c2c[nH]c3c(C#N)cccc23)cnc1OCC(C)(C)O [Form I, 3-(5-(2-hydroxy-2-methylpropoxy)-6-methylpyrazin-2-yl)-1H-indole-7-carbonitrile]
[4]; heating to 140° C. by TGA and cooled to room temperature
  Form after heating: converted to physical mixture of Form C, Form N and an unknown peak

## Cc1nc(-c2c[nH]c3c(C#N)cccc23)cnc1OCC(C)(C)O [Form P + Form X + Form Y, 3-(5-(2-hydroxy-2-methylpropoxy)-6-methylpyrazin-2-yl)-1H-indole-7-carbonitrile]
[2]; 2-MeTHF, 25° C. for about 3 days
  XRPD after competitive equilibration: Form P
[2]; 2-MeTHF, 50° C. for about 3 days
  XRPD after competitive equilibration: Form P
[2]; 2-MeTHF, 70° C. for about 3 days
  XRPD after competitive equilibration: Form P

## Cc1nc(-c2c[nH]c3c(C#N)cccc23)cnc1OCC(C)(C)O [Form S, 3-(5-(2-hydroxy-2-methylpropoxy)-6-methylpyrazin-2-yl)-1H-indole-7-carbonitrile]
[1]
  Relative stability in water activity experiments: converted to anhydrate Form P

## Cc1nc(-c2c[nH]c3c(C#N)cccc23)cnc1OCC(C)(C)O [Form Q, 3-(5-(2-hydroxy-2-methylpropoxy)-6-methylpyrazin-2-yl)-1H-indole-7-carbonitrile]
[4]; desolvation by heating to 150° C.
  Form after desolvation: converted to a physical mixture of Form C (majority) and Form Q

## Cc1nc(-c2c[nH]c3c(C#N)cccc23)cnc1OCC(C)(C)O [Form U, 3-(5-(2-hydroxy-2-methylpropoxy)-6-methylpyrazin-2-yl)-1H-indole-7-carbonitrile]
[4]
  Form after desolvation: converted to Form C

## Cc1nc(-c2c[nH]c3c(C#N)cccc23)cnc1OCC(C)(C)O [Form C and Form P, 3-(5-(2-hydroxy-2-methylpropoxy)-6-methylpyrazin-2-yl)-1H-indole-7-carbonitrile]
[2]; 1,4-Dioxane, 25° C. for 4 days
  XRPD after competitive equilibration: Form D
[2]; 1,4-Dioxane, 50° C. for 4 days
  XRPD after competitive equilibration: Form D
[2]; 1,4-Dioxane, 70° C. for 4 days
  XRPD after competitive equilibration: Form D
[2]; 2-MeTHF, 25° C. for 4 days
  XRPD after competitive equilibration: Form P
[2]; 2-MeTHF, 50° C. for 4 days
  XRPD after competitive equilibration: Form P
[2]; 2-MeTHF, 70° C. for 4 days
  XRPD after competitive equilibration: Form P
[2]; Acetone, 25° C. for 4 days
  XRPD after competitive equilibration: Form P
[2]; Acetone, 50° C. for 4 days
  XRPD after competitive equilibration: Form P
[2]; Acetone, 70° C. for 4 days
  XRPD after competitive equilibration: Form P
[2]; Acetone/water (v:v = 36:64) a.w = 0.9, 25° C. for 4 days
  XRPD after competitive equilibration: Form P
[2]; Acetone/water (v:v = 36:64) a.w = 0.9, 50° C. for 4 days
  XRPD after competitive equilibration: Form P
[2]; Acetone/water (v:v = 36:64) a.w = 0.9, 70° C. for 4 days
  XRPD after competitive equilibration: Form P
[2]; Acetone/water (v:v = 76.5:23.5) a.w = 0.7, 25° C. for 4 days
  XRPD after competitive equilibration: Form P
[2]; Acetone/water (v:v = 76.5:23.5) a.w = 0.7, 50° C. for 4 days
  XRPD after competitive equilibration: Form P
[2]; Acetone/water (v:v = 76.5:23.5) a.w = 0.7, 70° C. for 4 days
  XRPD after competitive equilibration: Form P
[2]; Acetone/water (v:v = 95.2:4.8) a.w = 0.4, 25° C. for 4 days
  XRPD after competitive equilibration: Form P
[2]; Acetone/water (v:v = 95.2:4.8) a.w = 0.4, 50° C. for 4 days
  XRPD after competitive equilibration: Form P
[2]; Acetone/water (v:v = 95.2:4.8) a.w = 0.4, 70° C. for 4 days
  XRPD after competitive equilibration: Form P
[2]; Acetonitrile, 25° C. for 4 days
  XRPD after competitive equilibration: Form P
[2]; Acetonitrile, 50° C. for 4 days
  XRPD after competitive equilibration: Form P
[2]; Acetonitrile, 70° C. for 4 days
  XRPD after competitive equilibration: Form P
[2]; DCM, 25° C. for 4 days
  XRPD after competitive equilibration: Form P
[2]; DMSO/water (v:v = 1:5 a.w. = 0.94), 80° C. for about 6 d
  XRPD after competitive equilibration: Form P
[2]; DMSO/water (v:v = 1:5 a.w. = 0.94), 90° C. for about 8 d
  XRPD after competitive equilibration: Form C (majority) +
[2]; DMSO/water (v:v = 1:5 a.w. = 0.94), 90° C. for about 18 d
  XRPD after competitive equilibration: Form C
[2]; Ethanol, 25° C. for 4 days
  XRPD after competitive equilibration: Form P
[2]; Ethanol, 50° C. for 4 days
  XRPD after competitive equilibration: Form P
[2]; Ethanol, 70° C. for 4 days
  XRPD after competitive equilibration: Form P
[2]; Ethyl acetate, 25° C. for 4 days
  XRPD after competitive equilibration: Form P
[2]; Ethyl acetate, 50° C. for 4 days
  XRPD after competitive equilibration: Form P
[2]; Ethyl acetate, 70° C. for 4 days
  XRPD after competitive equilibration: Form P
[2]; Heptane, 25° C. for 4 days
  XRPD after competitive equilibration: Form P
[2]; Heptane, 50° C. for 4 days
  XRPD after competitive equilibration: Form P
[2]; Heptane, 70° C. for 4 days
  XRPD after competitive equilibration: Form P
[2]; Heptane, 90° C. for about 8 d
  XRPD after competitive equilibration: Form C + Form P
[2]; Heptane, 90° C. for about 18 d
  XRPD after competitive equilibration: Form C + Form P
[2]; Isopropyl acetate, 25° C. for 4 days
  XRPD after competitive equilibration: Form P
[2]; Isopropyl acetate, 50° C. for 4 days
  XRPD after competitive equilibration: Form P
[2]; Isopropyl acetate, 70° C. for 4 days
  XRPD after competitive equilibration: Form P
[2]; MEK, 25° C. for 4 days
  XRPD after competitive equilibration: Form P
[2]; MEK, 50° C. for 4 days
  XRPD after competitive equilibration: Form P
[2]; MEK, 70° C. for 4 days
  XRPD after competitive equilibration: Form P
[2]; NMP, 25° C. for 4 days
  XRPD after competitive equilibration: Form Q, NMP
[2]; THF, 25° C. for 4 days
  XRPD after competitive equilibration: Form P
[2]; THF, 50° C. for 4 days
  XRPD after competitive equilibration: Form P
[2]; Toluene, 90° C. for about 8 d
  XRPD after competitive equilibration: Form C
[2]; Water, 25° C. for 4 days
  XRPD after competitive equilibration: Form P
[2]; Water, 50° C. for 4 days
  XRPD after competitive equilibration: Form P
[2]; Water, 70° C. for 4 days
  XRPD after competitive equilibration: Form P
[2]; Water, 90° C. for about 8 d
  XRPD after competitive equilibration: Form C + Form P
[2]; Water, 90° C. for about 18 d
  XRPD after competitive equilibration: Form P

## Cc1nc(-c2c[nH]c3c(C#N)cccc23)cnc1OCC(C)(C)O [Form M, 3-(5-(2-hydroxy-2-methylpropoxy)-6-methylpyrazin-2-yl)-1H-indole-7-carbonitrile]
[3]; MeOH at 25° C. for another 1 day
  Form after equilibration: converts to Form B

## Cc1nc(-c2c[nH]c3c(C#N)cccc23)cnc1OCC(C)(C)O [Form R, 3-(5-(2-hydroxy-2-methylpropoxy)-6-methylpyrazin-2-yl)-1H-indole-7-carbonitrile]
[2]; at both 25° C. and 70° C.
  Form conversion (relative stability): converts to Form P

## Cc1nc(-c2c[nH]c3c(C#N)cccc23)cnc1OCC(C)(C)O [Form B, 3-(5-(2-hydroxy-2-methylpropoxy)-6-methylpyrazin-2-yl)-1H-indole-7-carbonitrile]
[1]
  Relative stability in water activity experiments: converts to anhydrate Form C
[5]; heating to 150° C.
  Form after heating: Form X
[5]; heating to 176° C.
  Form after heating: Form Y
[5]; heating to 180° C.
  Form after heating: Form C
[4]
  Form after dehydration: converts to Form K

## Cc1nc(-c2c[nH]c3c(C#N)cccc23)cnc1OCC(C)(C)O [Form E, 3-(5-(2-hydroxy-2-methylpropoxy)-6-methylpyrazin-2-yl)-1H-indole-7-carbonitrile]
[4]; heating to 100° C. by TGA and cooled to room temperature
  Form after heating: converts to physical mixture of Form F and Form G

## Cc1nc(-c2c[nH]c3c(C#N)cccc23)cnc1OCC(C)(C)O [Form A, 3-(5-(2-hydroxy-2-methylpropoxy)-6-methylpyrazin-2-yl)-1H-indole-7-carbonitrile]
[2]; at both 25° C. and 50° C.
  Form conversion (relative stability): converts to Form C

## Cc1nc(-c2c[nH]c3c(C#N)cccc23)cnc1OCC(C)(C)O [Form D, 3-(5-(2-hydroxy-2-methylpropoxy)-6-methylpyrazin-2-yl)-1H-indole-7-carbonitrile]
[4]
  Form after desolvation: converts to Form C
